Marks after values point to notes of the source that are not given here.
Assay: 28-day rat study, plasma metabolite profiling: markers for Duodenum iron deficiency;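 also: rats given the compounds once a day across 28 days, plasma from fasted animals profiled by GC-MS and LC-MS, separate control groups of five rats per sex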
Details: for Cholic acid, treatment ratio versus control / Choline plasmalogen (C18,C20:4), treatment ratio versus control / Citrate, treatment ratio versus control / Creatinine, treatment ratio versus control / DAG (C18:1,C18:2), treatment ratio versus control / Hippuric acid, treatment ratio versus control / Indole-3-propionic acid, treatment ratio versus control / Methionine, treatment ratio versus control / Proline, treatment ratio versus control / Serine, treatment ratio versus control / TAG (C16:0,C18:1,C18:3), treatment ratio versus control / TAG (C18:1,C18:2), treatment ratio versus control / TAG (C18:2,C18:2), treatment ratio versus control / TAG (C18:2,C18:3), treatment ratio versus control / TAG (DAG-Fragment), treatment ratio versus control / TAG No 02, treatment ratio versus control / TAG No 07, treatment ratio versus control / Threonine, treatment ratio versus control / alpha-Tocopherol, treatment ratio versus control / Alanine, treatment ratio versus control / Campesterol, treatment ratio versus control / Glutamate, treatment ratio versus control / Glutamine, treatment ratio versus control / Lysophosphatidylcholine (C20:4), treatment ratio versus control / Malate, treatment ratio versus control / Ornithine, treatment ratio versus control / Phosphatidylcholine (C18:0, C22:6), treatment ratio versus control / Threonic acid, treatment ratio versus control: plasma
Method: A group of each 5 male and female rats was dosed once daily with the indicated compounds (see Table 4, below for compounds, applied doses and administration details) over 28 days.
Each dose group in the studies consisted of five rats per sex. Additional groups of each 5 male and female animals served as controls. Before starting the treatment period, animals, which were 62-64 days old when supplied, were acclimatized to the housing and environmental conditions for 7 days. All animals of the animal population were kept under the same constant temperature (20-24±3° C.) and the same constant humidity (30-70%). The animals of the animal population were fed ad libitum. The food to be used was essentially free of chemical or microbial contaminants. Drinking water was also offered ad libitum. Accordingly, the water was free of chemical and microbial contaminants as laid down in the European Drinking Water Directive 98/83/EG. The illumination period was 12 hours light followed by 12 hours darkness (12 hours light, from 6:00 to 18:00, and 12 hours darkness, from 18:00 to 6:00). The studies were performed in an AAALAC-approved laboratory in accordance with the German Animal Welfare Act and the European Council Directive 86/609/EE. The test system was arranged according to the OECD 407 guideline for the testing of chemicals for repeated dose 28-day oral toxicity study in rodents.
In the morning of day 7, 14, and 28, blood was taken from the retroorbital venous plexus from fasted anaesthetized animals. From each animal, 1 ml of blood was collected with EDTA as anticoagulant. The samples were centrifuged for generation of plasma. All plasma samples were covered with a N2 atmosphere and then stored at −80° C. until analysis.
For mass spectrometry-based metabolite profiling analyses plasma samples were extracted and a polar and a non-polar (lipid) fraction was obtained. For GC-MS analysis, the non-polar fraction was treated with methanol under acidic conditions to yield the fatty acid methyl esters. Both fractions were further derivatised with O-methyl-hydroxyamine hydrochloride and pyridine to convert Oxo-groups to O-methyloximes and subsequently with a silylating agent before analysis. In LC-MS analysis, both fractions were reconstituted in appropriate solvent mixtures. HPLC was performed by gradient elution on reversed phase separation columns.
Steroids and their metabolites were measured by online SPE-LC-MS (Solid phase extraction-LC-MS).
Following comprehensive analytical validation steps, the data for each analyte were normalized against data from pool samples. These samples were run in parallel through the whole process to account for process variability. The significance of treatment group values specific for sex, treatment duration and metabolite was determined by comparing means of the treated groups to the means of the respective untreated control groups using WELCH-test and quantified with treatment ratios versus control and p-values.

CNC(=O)/C(=N/OC)c1ccccc1COc1cc(C)ccc1C [Dimoxystrobin, (E)-2-(methoxyimino)-N-methyl-2-[alpha-(2,5-xylyloxy)-o-tolyl]acetamide]
Cholic acid, treatment ratio versus control (female rats, day 7): 70.58* | Choline plasmalogen (C18,C20:4), treatment ratio versus control (female rats, day 7): 1.11 | Citrate, treatment ratio versus control (female rats, day 7): 1.22* | Creatinine, treatment ratio versus control (female rats, day 7): 0.71 | DAG (C18:1,C18:2), treatment ratio versus control (female rats, day 7): 1.9* | Hippuric acid, treatment ratio versus control (female rats, day 7): 0.85 | Indole-3-propionic acid, treatment ratio versus control (female rats, day 7): 1.53 | Methionine, treatment ratio versus control (female rats, day 7): 1.05 | Proline, treatment ratio versus control (female rats, day 7): 1.28* | Serine, treatment ratio versus control (female rats, day 7): 1.5* | TAG (C16:0,C18:1,C18:3), treatment ratio versus control (female rats, day 7): 4.14* | TAG (C18:1,C18:2), treatment ratio versus control (female rats, day 7): 4.42* | TAG (C18:2,C18:2), treatment ratio versus control (female rats, day 7): 5.1* | TAG (C18:2,C18:3), treatment ratio versus control (female rats, day 7): 4.2* | TAG (DAG-Fragment), treatment ratio versus control (female rats, day 7): 4.39* | TAG No 02, treatment ratio versus control (female rats, day 7): 0.75* | TAG No 07, treatment ratio versus control (female rats, day 7): 2.96* | Threonine, treatment ratio versus control (female rats, day 7): 1.62* | alpha-Tocopherol, treatment ratio versus control (female rats, day 7): 1.74* | Cholic acid, treatment ratio versus control (female rats, day 14): 39.73* | Choline plasmalogen (C18,C20:4), treatment ratio versus control (female rats, day 14): 1.13* | Citrate, treatment ratio versus control (female rats, day 14): 1.17* | Creatinine, treatment ratio versus control (female rats, day 14): 1.07 | DAG (C18:1,C18:2), treatment ratio versus control (female rats, day 14): 1.96* | Hippuric acid, treatment ratio versus control (female rats, day 14): 0.51* | Indole-3-propionic acid, treatment ratio versus control (female rats, day 14): 0.87 | Methionine, treatment ratio versus control (female rats, day 14): 1.18* | Proline, treatment ratio versus control (female rats, day 14): 1.35* | Serine, treatment ratio versus control (female rats, day 14): 1.66* | TAG (C16:0,C18:1,C18:3), treatment ratio versus control (female rats, day 14): 3.15 | TAG (C18:1,C18:2), treatment ratio versus control (female rats, day 14): 3.71* | TAG (C18:2,C18:2), treatment ratio versus control (female rats, day 14): 3.83* | TAG (C18:2,C18:3), treatment ratio versus control (female rats, day 14): 2.76* | TAG (DAG-Fragment), treatment ratio versus control (female rats, day 14): 4.43* | TAG No 02, treatment ratio versus control (female rats, day 14): 0.73* | TAG No 07, treatment ratio versus control (female rats, day 14): 1.7 | Threonine, treatment ratio versus control (female rats, day 14): 1.34* | alpha-Tocopherol, treatment ratio versus control (female rats, day 14): 1.43* | Cholic acid, treatment ratio versus control (female rats, day 28): 6.46* | Choline plasmalogen (C18,C20:4), treatment ratio versus control (female rats, day 28): 1.11* | Citrate, treatment ratio versus control (female rats, day 28): 1.21* | Creatinine, treatment ratio versus control (female rats, day 28): 0.74 | DAG (C18:1,C18:2), treatment ratio versus control (female rats, day 28): 1.58* | Hippuric acid, treatment ratio versus control (female rats, day 28): 0.29* | Indole-3-propionic acid, treatment ratio versus control (female rats, day 28): 0.58* | Methionine, treatment ratio versus control (female rats, day 28): 1.15* | Proline, treatment ratio versus control (female rats, day 28): 1.25* | Serine, treatment ratio versus control (female rats, day 28): 1.41* | TAG (C16:0,C18:1,C18:3), treatment ratio versus control (female rats, day 28): 2 | TAG (C18:1,C18:2), treatment ratio versus control (female rats, day 28): 1.95 | TAG (C18:2,C18:2), treatment ratio versus control (female rats, day 28): 2.48* | TAG (C18:2,C18:3), treatment ratio versus control (female rats, day 28): 2.26 | TAG (DAG-Fragment), treatment ratio versus control (female rats, day 28): 2.23* | TAG No 02, treatment ratio versus control (female rats, day 28): 0.77* | TAG No 07, treatment ratio versus control (female rats, day 28): 1.45 | Threonine, treatment ratio versus control (female rats, day 28): 1.23* | alpha-Tocopherol, treatment ratio versus control (female rats, day 28): 1.32 | Alanine, treatment ratio versus control (male rats, day 7): 1.41* | Campesterol, treatment ratio versus control (male rats, day 7): 1.13 | Citrate, treatment ratio versus control (male rats, day 7): 1.19* | Creatinine, treatment ratio versus control (male rats, day 7): 0.95 | Glutamate, treatment ratio versus control (male rats, day 7): 0.93 | Glutamine, treatment ratio versus control (male rats, day 7): 0.79* | Hippuric acid, treatment ratio versus control (male rats, day 7): 0.91 | Lysophosphatidylcholine (C20:4), treatment ratio versus control (male rats, day 7): 0.96 | Malate, treatment ratio versus control (male rats, day 7): 1.25* | Methionine, treatment ratio versus control (male rats, day 7): 1.08* | Ornithine, treatment ratio versus control (male rats, day 7): 1.19* | Phosphatidylcholine (C18:0, C22:6), treatment ratio versus control (male rats, day 7): 1.12* | Serine, treatment ratio versus control (male rats, day 7): 1.28* | Threonic acid, treatment ratio versus control (male rats, day 7): 1.33* | Threonine, treatment ratio versus control (male rats, day 7): 1.14 | Alanine, treatment ratio versus control (male rats, day 14): 1.59* | Campesterol, treatment ratio versus control (male rats, day 14): 1.16 | Citrate, treatment ratio versus control (male rats, day 14): 1.32* | Creatinine, treatment ratio versus control (male rats, day 14): 0.63* | Glutamate, treatment ratio versus control (male rats, day 14): 0.74* | Glutamine, treatment ratio versus control (male rats, day 14): 0.77* | Hippuric acid, treatment ratio versus control (male rats, day 14): 0.48* | Lysophosphatidylcholine (C20:4), treatment ratio versus control (male rats, day 14): 0.93* | Malate, treatment ratio versus control (male rats, day 14): 1.16 | Methionine, treatment ratio versus control (male rats, day 14): 1.16* | Ornithine, treatment ratio versus control (male rats, day 14): 1.52* | Phosphatidylcholine (C18:0, C22:6), treatment ratio versus control (male rats, day 14): 1.47* | Serine, treatment ratio versus control (male rats, day 14): 1.32* | Threonic acid, treatment ratio versus control (male rats, day 14): 1.29* | Threonine, treatment ratio versus control (male rats, day 14): 1.29* | Alanine, treatment ratio versus control (male rats, day 28): 1.28* | Campesterol, treatment ratio versus control (male rats, day 28): 0.59* | Citrate, treatment ratio versus control (male rats, day 28): 1.57* | Creatinine, treatment ratio versus control (male rats, day 28): 0.26* | Glutamate, treatment ratio versus control (male rats, day 28): 0.78* | Glutamine, treatment ratio versus control (male rats, day 28): 0.83* | Hippuric acid, treatment ratio versus control (male rats, day 28): 1.43 | Lysophosphatidylcholine (C20:4), treatment ratio versus control (male rats, day 28): 1.03 | Malate, treatment ratio versus control (male rats, day 28): 0.86 | Methionine, treatment ratio versus control (male rats, day 28): 1.01 | Ornithine, treatment ratio versus control (male rats, day 28): 1.47* | Phosphatidylcholine (C18:0, C22:6), treatment ratio versus control (male rats, day 28): 1.35* | Serine, treatment ratio versus control (male rats, day 28): 1.29* | Threonic acid, treatment ratio versus control (male rats, day 28): 1.46* | Threonine, treatment ratio versus control (male rats, day 28): 1.21* | capability of inducing an iron adsorption disorder (statement in words): capable of inducing an iron adsorption disorder
